Counter-ions that a name gives are not always drawn.
system: Lipopolysaccharide

Going from CC(C)=CCC/C(C)=C/CC/C(C)=C/CC[C@]1(C)CCc2cc(O)cc(C)c2O1 [δ-Tocotrienol] to CC(C)c1ccc2c(c1)c(SC(C)(C)C)c(CC(C)(C)C(=O)O)n2Cc1ccc(Cl)cc1 [MK 886 (sodium salt)], the inhibition falls from 52.4% to 47.2%.

Going from CCCCCCCC/C=C\CCCCCCCC(=O)NCCO [Oleoylethanolamide] to Laureth-9, the inhibition rises from 34.1% to 99.9%.

Going from O=C1O/C(=C/Br)CC[C@@H]1c1cccc2ccccc12 [(R)-Bromoenol lactone] to CCCCCCCCCCCCC/C=C/[C@@H](O)[C@@H](N)CO [D-erythro-Sphingosine C-18], the inhibition falls from 97.3% to 63.8%.

First: CCCCCCCC/C=C\CCCCCCCC(=O)OCC(O)CO (stereo not drawn) [α-glyceryl monooloeate]
Second: CCCCCCCC/C=C\CCCCCCCCN [Oleyl amine]
The inhibition of the first is lower: 49% for the first, 99.6% for the second.

First: CCCCCCCCCCCCCCCC(=O)OC[C@H](COP(=O)([O-])OCC[N+](C)(C)C)OC(=O)CCCC=O [POV-PC]
Second: CC/C=C\C/C=C\C/C=C\CCCCCCCC(=O)OC [α-linolenic acid methyl ester]
The inhibition of the first is higher: 48.7% for the first, 24.9% for the second.

Compared with CCCCCCCCCCCCCCCC(=O)NCC(=O)O [N-Palmitoyl Glycine], CCCCCCCCCCCCC/C=C/[C@@H](O)[C@H](CO)NC(=O)CCCCC [C-6 Ceramide] is lower in inhibition: 85.8% for the first, 48% for the second.

Going from Octoxynol-9 to CCCCCCCCCCCCCCCOS(=O)(=O)O [Sodium pentadecyl sulfate], the inhibition rises from 9.83% to 86.6%.

First: CCCCC/C=C\C/C=C\C/C=C\C/C=C\CCCCOC(CO)CO [2-Arachidonyl Glycerol ether]
Second: O=S(=O)(O)c1ccc(O)cc1 [Aluminum phenol sulfonate]
The inhibition of the first is higher: 35% for the first, 27.4% for the second.

Going from CCCCC/C=C\C/C=C\C/C=C\C/C=C\CCCC(=O)NCCc1ccc(O)c(O)c1 [N-Arachidonoyl Dopamine] to CC/C=C\C/C=C\C/C=C\CCCCCCCC(=O)O [α-linoleic acid], the inhibition rises from 49.1% to 97.9%.

First: CCCCCCCCCCCCCCCCOC[C@H](CO)OC(C)=O [Hexadecyl Acetyl Glycerol]
Second: CCCCCCCCCCCC(=O)NCCCN(C)C [Dimethylaminopropyllaurylamide]
The inhibition of the first is lower: 42% for the first, 99.4% for the second.

Going from CCCCCCCCCCCCCCCCOS(=O)(=O)O [Sodium hexadecyl sulfate] to CC(C)=CCC/C(C)=C/CC/C(C)=C/CC[C@]1(C)CCc2c(C)c(O)c(C)c(C)c2O1 [alpha.-Tocotrienol], the inhibition falls from 89.4% to 29.9%.

First: CCCCCCCCCCCCCC[N+](C)(C)Cc1ccccc1 [Tetradecylbenzyldimethylammonium chloride]
Second: CCCCCCCC/C=C\CCCCCCCC(=O)OCCO [9-octadecenoic acid (z)-,2-hydroxyethyl ester]
The inhibition of the first is higher: 93.8% for the first, 46% for the second.

Going from Cc1cc(C(C)(C)CC(C)(C)C)ccc1OCCOCC[N+](C)(C)Cc1ccccc1 [Methylbenzethonium chloride, reference compound] to CCCCCCCCCCCC(=O)NCCO [Dodecanamide MEA], the inhibition falls from 93% to 44.3%.

Going from CCCCCCCCCCCC[P+](c1ccccc1)(c1ccccc1)c1ccccc1 [DODECYLTRIPHENYLP[…], 98%, DODECYLTRIPHENYLP[…]] to CC(C)=CCC/C(C)=C/CC/C(C)=C/CC[C@]1(C)CCc2cc(O)c(C)c(C)c2O1 [γ-Tocotrienol], the inhibition falls from 91.1% to 38.5%.

Going from CCCCCCCCCCCC[N+](C)(C)Cc1ccccc1 [Dimethyldodecylbenzylammonium chloride] to CCCCC/C=C\C/C=C\CCCCCCCC(N)=O [linoleamide], the inhibition falls from 98.2% to 75.2%.

First: CCCCCCCCCC(=O)OC[C@H](CO)OC(=O)CCCCCCCCC [1,2-Didecanoyl-sn-glycerol]
Second: CCCCCCCC/C=C\CCCCCCCCCCCCCC(=O)NCCS(=O)(=O)O [N-Nervonoyl Taurine]
The inhibition of the first is lower: 47.4% for the first, 79.8% for the second.

First: CCCCCCCC[N+](C)(C)CCCCCCCC [Dioctyldimethylammonium chloride]
Second: CCCCCCCCCCCCCCCC(=O)NCCO [palmitamide mea]
The inhibition of the first is higher: 93.3% for the first, 13.2% for the second.

— patent publication US10156566B2, “Detoxification of microbial virulence factors in oral cavity” (priority 2015, dated 2018)
